This note sets out measurements from patent US5977386A, “6-thio-substituted paclitaxels” (Bristol-Myers Squibb Company, priority 1997, dated 1999).

In series [1] the test system is HCT-116 human colon carcinoma cells. Description: MTS cytotoxicity assay (72 h exposure). The class given is cell-based. Here is the method:
Cytoxicity was assessed in HCT-116 human colon carcinoma cells by MTS (3-(4,5-dimethylthiazol-2-yl)-5-(3-carboxymethoxyphenyl)-2-(4-sulphenyl)-2H-tetrazolium, inner salt) assay as reported in T. L. Riss, et. al., "Comparison of MTT, XTT, and a novel tetrazolium compound MTS for in vitro proliferation and chemosensitivity assays.," Mol. Biol. Cell 3 (Suppl.):184a, 1992. Cells were plated at 4,000 cell/well in 96 well microtiter plates and 24 hours later drugs were added and serial diluted. The cells were incubated at 37° for 72 hours at which time the tetrazolium dye, MTS at 333 μg/ml (final concentration), in combination with the electron coupling agent phenazine methosulfate at 25 μM (final concentration) was added. A dehydrogenase enzyme in live cells reduces the MTS to a form that absorbs light at […] which can be quantitated spectrophotometrically. The greater the absorbance the greater the number of live cells. The results are expressed as an IC50, which is the drug concentration required to inhibit cell proliferation (i.e. absorbance at 450 nm) to 50% of that of untreated control cells. The IC50 values for compounds evaluated in this assay are evaluated in Table I.
^1 Cytotoxicity was determined after a 72 h exposure by MTS assay.

For series [2], the system named is M5076 murine sarcoma. The series is described as follows: sc M5076 murine sarcoma model, tumor growth delay. The settings on record: sc M5076, iv on days 1, 3, 5, 7, and 9 post-implant, at optimal dose. The class given is in vivo. The protocol: M5076: Taxane derivatives were tested in the M5076 murine sarcoma model using the general materials and methods described by Rose, W. C. in Anticancer Research 6: 557-562, 1986, for subcutaneous M5076 implants, with the following modifications: treatments were administered intravenously on Days 1, 3, 5, 7, and 9 post-tumor implant using eight mice per treatment and untreated control group. Activity was determined based on an increase in lifespan (as described in the preceding reference) of […], and, in particular, on a delay in tumor growth equivalent to at least 1 gross log cell kill (LCK). The latter was calculated as described in Rose, W. C. and Basler, G. A. in In Vivo 4: 391-396, 1990.
(§1) ^a Optimal dose (mg/kg/inj) if active, otherwise, maximal tolerated
(§2) dose (MTD) or highest dose tested.

For series [3], the system named is M109 lung carcinoma. Description: Mice M109 Model (In-Vivo), ip M109 lung carcinoma, median survival. Particulars: ip M109, Balb/c×DBA/2 F1 mice, ip injections days 5 and 8 post-implant, at optimal dose. Set-up: species or system mouse. The protocol: Balb/c×DBA/2 F1 hybrid mice were implanted intraperitoneally, as described by William Rose in Evaluation of Madison 109 Lung Carcinoma as a Model for Screening Antitumor Drugs, Cancer Treatment Reports, 65, No. 3-4 (1981), with 0.5 mL of a 2% (w/v) brei of M109 lung carcinoma.
Mice were treated with compounds under study by receiving intraperitoneal injections of various doses on days 5 and 8 post-implant. Mice were followed daily for survival until approximately 75 days post-tumor implant. One group of mice per experiment remained untreated and served as the control group.
Median survival times of compound-treated (T) mice were compared to the median survival time of the control (C) mice. The ratio of the two values for each compound-treated group of mice was multiplied by 100 and expressed as a percentage (i.e. % T/C) in the following Table II for representative compounds.
as §1, §2

The mark [4] stands for this setting: Homo sapiens, HCT-116, 72 h, read-out: Cytotoxicity Assay IC50 against HCT 116 Human colon tumor cell line.
Where [5] appears, read: Homo sapiens, HCT-116, read-out: Cytotoxicity Assay IC50 against HCT 116 Human colon tumor cell line.

Read-outs that look alike come from different tables or passages of the source. A value given as a limit tells only on which side of the number the result lay.

What is called IC50 is the point on the concentration scale where inhibition reaches its midpoint. Take `CC(=O)O[C@H]1C(=O)[C@]2(C)C[C@@H]([S+](C)[O-])[C@H]3OC[C@@]3(OC(C)=O)[C@H]2[C@H](OC(=O)c2ccccc2)[C@]2(O)C[C@H](OC(=O)[C@H](O)[C@@H](NC(=O)c3ccccc3)c3ccccc3)C(C)=C1C2(C)C` (single isomer, unassigned) [Compound 19a, 7-deoxy-6β-methyl sulfoxide-paclitaxel]: the IC50 in series [1] (4320 min, read-out: Cytotoxicity Assay IC50 against HCT 116 Human colon tumor cell line) was > 111 nM. Regarding `CC(=O)O[C@H]1C(=O)[C@]2(C)C[C@@H]([S+](C)[O-])[C@H]3OC[C@@]3(OC(C)=O)[C@H]2[C@H](OC(=O)c2ccccc2)[C@]2(O)C[C@H](OC(=O)[C@H](O)[C@@H](NC(=O)OC(C)(C)C)c3ccccc3)C(C)=C1C2(C)C` (single isomer, unassigned) [Compound 26, 3'-NH-Boc-7-deoxy-6b-methylsulfoxidepaclitaxel], the half-inhibitory concentration (IC50) in series [1] (setting [4]) was determined as 0.66 nM. Take `CC(=O)O[C@H]1C(=O)[C@]2(C)C[C@@H]([S+]([O-])CC#N)[C@H]3OC[C@@]3(OC(C)=O)[C@H]2[C@H](OC(=O)c2ccccc2)[C@]2(O)C[C@H](OC(=O)[C@H](O)[C@@H](NC(=O)c3ccccc3)c3ccccc3)C(C)=C1C2(C)C` (single isomer, unassigned) [Compound 38, 6b-cyanomethylsulfoxo-7-deoxypaclitaxel]: the IC50 in series [1] (setting [4]) worked out at 28 nM. In series [2], the “Maximum T-C in LCK (gross log cell kill)” value stood at 0 LCK. Regarding `CS[C@@H]1C[C@@]2(C)C(=O)[C@H](OC(C)=O)C3=C(C)[C@@H](OC(=O)[C@H](O)[C@@H](NC(=O)c4ccccc4)c4ccccc4)C[C@@](O)([C@@H](OC(=O)c4ccccc4)[C@@H]2[C@]2(OC(C)=O)CO[C@H]12)C3(C)C` [Compound 9, 7-deoxy-6β-thiomethylpaclitaxel], in series [1] (setting [4]), the IC50 came to 1.1 nM. Moreover, the “Maximum T-C in LCK (gross log cell kill)” value in series [2] stood at 1.1 LCK.

Turning to `CC(=O)O[C@H]1C(=O)[C@]2(C)C[C@@H](SC(C)=O)[C@H]3OC[C@@]3(OC(C)=O)[C@H]2[C@H](OC(=O)c2ccccc2)[C@]2(O)C[C@H](OC(=O)[C@H](O)[C@@H](NC(=O)c3ccccc3)c3ccccc3)C(C)=C1C2(C)C` [Compound 11, 7-deoxy-6β-thioacetoxypaclitaxel], in series [1] (setting [4]), the concentration for half-maximal inhibition (IC50) is 1.84 nM. Further, the “Maximum T-C in LCK (gross log cell kill)” value in series [2] was 0.5 LCK. In the case of `CC(=O)O[C@H]1C(=O)[C@]2(C)C[C@@H](S)[C@H]3OC[C@@]3(OC(C)=O)[C@H]2[C@H](OC(=O)c2ccccc2)[C@]2(O)C[C@H](OC(=O)[C@H](O)[C@@H](NC(=O)c3ccccc3)c3ccccc3)C(C)=C1C2(C)C` [Compound 13, 7-deoxy-6β-thio-paclitaxel], in series [1] (setting [5]), the half-inhibitory concentration (IC50) was found to be 26.1 nM. For the same molecule, in series [2], the “Maximum T-C in LCK (gross log cell kill)” value worked out at 0.5 LCK. For `CC(=O)O[C@H]1C(=O)[C@]2(C)C[C@@H](SCCO)[C@H]3OC[C@@]3(OC(C)=O)[C@H]2[C@H](OC(=O)c2ccccc2)[C@]2(O)C[C@H](OC(=O)[C@H](O)[C@@H](NC(=O)c3ccccc3)c3ccccc3)C(C)=C1C2(C)C` [Compound 15, 7-deoxy-6β-(2-hydroxyethyl)thio-paclitaxel], in series [1] (setting [5]), the concentration for half-maximal inhibition (IC50) was determined as 1.8 nM. Further, the “Maximum T-C in LCK (gross log cell kill)” value in series [2] came out at 0.3 LCK.

As to `CS[C@@H]1C[C@@]2(C)C(=O)[C@H](OC(C)=O)C3=C(C)[C@@H](OC(=O)[C@H](O)[C@@H](NC(=O)OC(C)(C)C)c4ccccc4)C[C@@](O)([C@@H](OC(=O)c4ccccc4)[C@@H]2[C@]2(OC(C)=O)CO[C@H]12)C3(C)C` [Compound 24, 3'-NH-Boc-7-deoxy-6b-thiomethylpaclitaxel], the half-inhibitory concentration (IC50) in series [1] (setting [4]) was 0.2 nM. Also, the “Maximum T-C in LCK (gross log cell kill)” value in series [2] was 1.2 LCK. `CCOC(=O)N[C@@H](c1ccccc1)[C@@H](O)C(=O)O[C@H]1C[C@@]2(O)[C@@H](OC(=O)c3ccccc3)[C@@H]3[C@]4(OC(C)=O)CO[C@@H]4[C@H](SC)C[C@@]3(C)C(=O)[C@H](OC(C)=O)C(=C1C)C2(C)C` [Compound 28, 3'-NH-ethylcarbonate-7-deoxy-6b-thiomethylpaclitaxel]: the concentration for half-maximal inhibition (IC50) in series [1] (setting [4]) was determined as 0.7 nM. Further, in series [2], the “Maximum T-C in LCK (gross log cell kill)” value is listed as 1.1 LCK. For `CCS[C@@H]1C[C@@]2(C)C(=O)[C@H](OC(C)=O)C3=C(C)[C@@H](OC(=O)[C@H](O)[C@@H](NC(=O)c4ccccc4)c4ccccc4)C[C@@](O)([C@@H](OC(=O)c4ccccc4)[C@@H]2[C@]2(OC(C)=O)CO[C@H]12)C3(C)C` [Compound 30, 7-deoxy-6b-thioethylpaclitaxel], the IC50 in series [1] (setting [4]) amounted to 0.9 nM. Besides, the “Maximum T-C in LCK (gross log cell kill)” value in series [2] was 0.4 LCK.

For the molecule `CC(=O)O[C@H]1C(=O)[C@]2(C)C[C@@H](SCc3ccccc3)[C@H]3OC[C@@]3(OC(C)=O)[C@H]2[C@H](OC(=O)c2ccccc2)[C@]2(O)C[C@H](OC(=O)[C@H](O)[C@@H](NC(=O)c3ccccc3)c3ccccc3)C(C)=C1C2(C)C` [Compound 32, 6-b-thiobenzyl-7-deoxypaclitaxel], in series [1] (setting [4]), the half-inhibitory concentration (IC50) was 5.27 nM. For `CC(=O)CS[C@@H]1C[C@@]2(C)C(=O)[C@H](OC(C)=O)C3=C(C)[C@@H](OC(=O)[C@H](O)[C@@H](NC(=O)c4ccccc4)c4ccccc4)C[C@@](O)([C@@H](OC(=O)c4ccccc4)[C@@H]2[C@]2(OC(C)=O)CO[C@H]12)C3(C)C` [Compound 34, 6-b-thiomethyl methyl keto-7-deoxytaclitaxel], the “Maximum % T/C (ratio of median survival times treated/control x 100)” value in series [3] came out at 168%. The half-inhibitory concentration (IC50) in series [1] (setting [4]) turned out to be 1.2 nM. On to `CC(=O)O[C@H]1C(=O)[C@]2(C)C[C@@H](SCC#N)[C@H]3OC[C@@]3(OC(C)=O)[C@H]2[C@H](OC(=O)c2ccccc2)[C@]2(O)C[C@H](OC(=O)[C@H](O)[C@@H](NC(=O)c3ccccc3)c3ccccc3)C(C)=C1C2(C)C` [Compound 36, 6b-thioacetonitrile-7-deoxypaclitaxel], for which the half-inhibitory concentration (IC50) in series [1] (setting [4]) was 4.4 nM. Further, in series [2], the “Maximum T-C in LCK (gross log cell kill)” value is recorded as 1.1 LCK. For the molecule `COC(=O)CS[C@@H]1C[C@@]2(C)C(=O)[C@H](OC(C)=O)C3=C(C)[C@@H](OC(=O)[C@H](O)[C@@H](NC(=O)c4ccccc4)c4ccccc4)C[C@@](O)([C@@H](OC(=O)c4ccccc4)[C@@H]2[C@]2(OC(C)=O)CO[C@H]12)C3(C)C` [Compound 40, 6b-thioacetyl methyl ester-7-deoxypaclitaxel], the “Maximum % T/C (ratio of median survival times treated/control x 100)” value in series [3] worked out at 103%. The IC50 in series [1] (setting [4]) came to 2.5 nM. For `CC(=O)O[C@H]1C(=O)[C@]2(C)C[C@@H](SCC(N)=O)[C@H]3OC[C@@]3(OC(C)=O)[C@H]2[C@H](OC(=O)c2ccccc2)[C@]2(O)C[C@H](OC(=O)[C@H](O)[C@@H](NC(=O)c3ccccc3)c3ccccc3)C(C)=C1C2(C)C` [Compound 44, 7-deoxy-6b-thioacetamidepaclitaxel], the IC50 in series [1] (setting [4]) was determined as 11 nM. Further, in series [2], the “Maximum T-C in LCK (gross log cell kill)” value was 0 LCK. As for `CSCS[C@@H]1C[C@@]2(C)C(=O)[C@H](OC(C)=O)C3=C(C)[C@@H](OC(=O)[C@H](O)[C@@H](NC(=O)c4ccccc4)c4ccccc4)C[C@@](O)([C@@H](OC(=O)c4ccccc4)[C@@H]2[C@]2(OC(C)=O)CO[C@H]12)C3(C)C` [Compound 46, 6-b-methylthiomethylthio ether-7-deoxy paclitaxel], the IC50 in series [1] (setting [4]) is 3.5 nM. In series [2], the “Maximum T-C in LCK (gross log cell kill)” value is 0 LCK.

With `COCS[C@@H]1C[C@@]2(C)C(=O)[C@H](OC(C)=O)C3=C(C)[C@@H](OC(=O)[C@H](O)[C@@H](NC(=O)c4ccccc4)c4ccccc4)C[C@@](O)([C@@H](OC(=O)c4ccccc4)[C@@H]2[C@]2(OC(C)=O)CO[C@H]12)C3(C)C` [Compound 48], in series [1] (setting [4]), the half-inhibitory concentration (IC50) came to 1.9 nM. Also, the “Maximum T-C in LCK (gross log cell kill)” value in series [2] is 0.2 LCK. `C=CS[C@@H]1C[C@@]2(C)C(=O)[C@H](OC(C)=O)C3=C(C)[C@@H](OC(=O)[C@H](O)[C@@H](NC(=O)c4ccccc4)c4ccccc4)C[C@@](O)([C@@H](OC(=O)c4ccccc4)[C@@H]2[C@]2(OC(C)=O)CO[C@H]12)C3(C)C` [Compound 50, 6b-thioethenyl-7-deoxypaclitaxel]: in series [1] (setting [4]), the half-inhibitory concentration (IC50) was determined as 0.3 nM. Also, in series [2], the “Maximum T-C in LCK (gross log cell kill)” value is reported as 1.0 LCK.
